Laboratory results reported in patent publication US9986723B2, “Screen and use of therapeutics for pancreatic ductal adenocarcinoma” (The Board of Regents of the University of Texas System, priority 2014, dated 2018).

Legend:
[1] = tested on: PanIN and PDA tumor growth in KIC mice; assay: Two week in vivo assay in Rgs16::GFP;KIC mice, Rgs16::GFP intensity at P29; parameters: species or system mouse
From the text: Fluorescent microscopy and GFP quantification. Pancreatic expression of Rgs16::GFP in GFP-PDA mice was quantified using a Zeiss Lumar microscope. Images were captured using a single-channel camera (Hamamatsu) in 1344×1024 resolution with 1 sec exposure under 48× magnification with 1×1 binning, analog gain=10, and analog offset=2 settings. Pancreatic fields representing the tumor burden (3-4 fields for P15 pups and 5 or more for pups from P23 onwards) of the pancreas were imaged covering up to 50% of the organ surface area. All images were saved in gray-scale 16-bit tiff format. Images were quantified using NIH ImageJ software with background subtraction with a radius of 50 pixels. A variable and tight threshold was set to eliminate residual background. Intensities of all particles with size ≥5 pixels were summed to obtain the total light intensity per image.
Drug dosages. GFP-PDA mice were injected intraperitoneally with gemcitabine (Eli Lilly; Indianapolis, Ind., USA) (12.5 mg/kg/day given 3 days/week, dissolved in PBS), Abraxane (Cellgene; Summit, N.J., USA) (5 mg/kg/day given 2 days/week, diluted in 2% saline solution), BGB324 (BerGenBio, Bergen, Norway) (5 mg/kg/day given 5 days/week, dissolved in a mix of DMSO:ethanol:Kolliphor EL:water with 4:4:8:84 v/v ratio), and warfarin (0.2 mg/kg/day given 5 days/week, dissolved in PBS) according to injection schedules specified below. These doses were validated in prior mouse studies (Dineen et al., 2010; Kutluk Cenik et al., 2013; Ostapoff et al., 2013; Aguilera et al., 2014; Ostapoff et al., 2014). […] To verify tumor progression remains constant over the duration of these experiments, assays of untreated mice were interspersed with drug-treated cohorts, and warfarin-treated pups were the final cohort the inventors tested. Gemcitabine, Abraxane and warfarin were purchased from the UT Southwestern clinical pharmacy; BGB324 was a gift from BerGenBio.
Statistical analysis of GFP expression. GFP values were converted to log10 scale prior to statistical analysis. Graphs and their statistical comparisons were done using Graphpad Prism software with unpaired and two-tailed Student's t test. Significance between groups was indicated as ns (not significant); *p<0.05; **p<0.01; ***p<0.001; ****p<0.0001. Error bars in all the graphs are standard error mean (SEM). See FIGS. 7-8 for additional statistical analysis.
The therapeutic screening strategy was to treat KIC pups between P15-P28 (when PanIN and PDA are in rapid expansion) with anticancer drugs, sacrifice mice at P29, and capture Rgs16::GFP intensity with a dissection fluorescence microscope. Images of the five brightest non-overlapping fields of Rgs16::GFP expression were then collected, representing the regions of greatest tumor burden (FIGS. 17A-C).

Panc-1 tumors = assay: Low dose warfarin in drinking water, orthotopic human tumor xenograft; assay type: in vivo, mouse
Experimental: (FIG. 23A) Primary tumor burden after therapy with warfarin. Therapy was initiated when implanted tumors were visible by ultrasound (˜10 mm^3) and consisted of control (normal drinking water) or warfarin, administered in the drinking water at 0.5 mg/L (immunocompetent mice: Pan02 (n=4, control; 3, warfarin), KIC (n=10, control; 8, warfarin)) or 1 mg/L (Panc-1 (n=10, control; 8, warfarin), AsPC-1 (n=8, control; 6, warfarin), Capan-1 (n=10, control; 7, warfarin)) and continued for 2-4 weeks until control mice were moribund. Therapy in KIC mice was initiated at 3 weeks of age and continued for 4 weeks. (FIG. 23B) Metastases were determined grossly upon sacrifice and confirmed by histological evaluation of the liver. […] Incidence of metastasis is also indicated. […] Tumor volume determined by serial ultrasound. […] Therapy with mAb 10C9 (250 μg 2×/week) was initiated when tumors were established as above and persisted for 4 weeks. […] Error bars indicate s.e.m.
(FIG. 24A) HEK293 cells engineered to stably express recombinant Gas6 were grown in the presence of Vitamin K or Vitamin K+warfarin. Gas6 levels and γ-carboxylation were assayed by immunoblotting conditioned media. Conditioned media from untransfected HEK293 cells was used as a negative control. (FIG. 24B) Panc1 cells were grown overnight in media with 1% serum with no additions (NT), warfarin (2 μM) or BGB324 (2 μM). Lysates were probed for total Axl (tAxl) and phosphorylated Axl (pAxl). (FIG. 24C) Panc1 cells were grown in the presence of control media, Vitamin K, warfarin or warfarin+Vitamin K. The level of phosphorylated Axl (pAXL, red) was determined by immunofluorescence. (FIG. 24D) Panc1 cells were grown overnight in media with 1% serum with no additions (control), warfarin (1 μM), Gas6 (1.3 nM) or Gas6+warfarin. Lysates were probed for phosphorylated Akt (pAkt) and actin. (FIG. 24E) Lysates from Panc1 tumors harvested from mice treated with control or warfarin were probed for expression of tAxl, pAxl, actin, pAKT, tAKT, and cleaved Parp. (FIG. 24F) The effect of warfarin on cell migration was assessed by a ‘scratch’ assay. Monolayers of the indicted cells were wounded with a pipet tip. The cells were incubated in media containing 2% serum+/−warfarin (2 μM) or media containing 2% serum+Gas6 (1.3 nM)+/−warfarin.
FIGS. 26A-C. […] (FIG. 26A) the expression level of pAxl, Zeb1 and nuclear β-catenin in Panc1 cells in vitro was measured by immunofluorescence under normal culture conditions or after growth on collagen matrix and treatment with TGF-β (20 ng/ml) to induce epithelial to mesenchymal transition, with or without warfarin (2 μM). p-Axl was normalized to total Axl area. (FIG. 26B) Panc1 cells were treated with either SFM, recombinant Gas 6 (100 ng/ml) or Gas6 following pretreatment with 10C9 (mAb anti-Axl). Transition to a mesenchymal phenotype was characterized by changes in vimentin and nuclear Zeb1 expression determined by immunofluoresence. […] (FIG. 26C) Paraffin embedded sections of Panc-1 tumors were analyzed by immunofluorescence for markers of EMT.

[2] = tumor lysates, low dose warfarin
[3] = tumor sections, low dose warfarin

CC(=O)CC(c1ccccc1)c1c(O)c2ccccc2oc1=O (racemic) [Warfarin]
effect on PanIN lesions and PDA tumor growth (Rgs16::GFP expression) ([1]; KIC mice treated P15-P28, i.p., sacrificed P29): no effect
mice with at least one field in the lower 1% ile of all untreated fields ([1]; P29, untreated 7%): 19%
mice with at least one field of Rgs16::GFP expression in pancreas greater than the upper 95% ile of all untreated fields ([1]; P29, untreated 14%): 13%
intratumoral microvessel density (Panc-1 tumors; Endomucin, low dose warfarin): reduced
expression of vimentin and E-cadherin in tumors (Panc-1 tumors; immunofluorescence, low dose warfarin): reduced expression of vimentin and elevated the expression of E-cadherin
level of cleaved Parp (Panc-1 tumors; [2]): increased
level of pAxl and pAkt in tumors (Panc-1 tumors; [2]): substantially suppressed
cleaved caspase 3 and tumor necrosis (Panc-1 tumors; [3]): elevated
expression of phosphorylated histone H3 (proliferation) (Panc-1 tumors; [3]): decreased
primary tumor growth (Panc-1 tumors; warfarin 1 mg/L drinking water): little effect
